Activity calls are given as the source filed them.
What was measured:
[1] = molecular target: T1, Cytochrome P450 1A2 (Homo sapiens, UniProt P05177);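 also: PubChem cytochrome P450 panel assay, CYP1A2 panel member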
T1 sequence (P05177 whole entry): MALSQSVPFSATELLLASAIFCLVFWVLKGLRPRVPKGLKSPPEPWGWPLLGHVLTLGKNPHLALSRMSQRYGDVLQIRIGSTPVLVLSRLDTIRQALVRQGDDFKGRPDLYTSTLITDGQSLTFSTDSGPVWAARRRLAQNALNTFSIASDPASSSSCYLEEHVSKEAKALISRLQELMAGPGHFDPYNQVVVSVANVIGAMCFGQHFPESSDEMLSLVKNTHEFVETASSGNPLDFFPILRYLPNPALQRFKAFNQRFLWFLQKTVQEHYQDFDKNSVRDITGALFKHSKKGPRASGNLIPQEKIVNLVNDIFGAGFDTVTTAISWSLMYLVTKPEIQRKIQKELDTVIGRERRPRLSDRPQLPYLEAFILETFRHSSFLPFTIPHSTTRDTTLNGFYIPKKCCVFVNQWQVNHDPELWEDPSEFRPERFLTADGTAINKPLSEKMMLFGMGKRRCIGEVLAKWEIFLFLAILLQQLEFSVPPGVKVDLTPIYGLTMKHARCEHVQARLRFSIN

[2] = molecular target: Cytochrome P450 3A4 (Homo sapiens, UniProt P08684);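 also: CYP3A4 tested as one member of a cytochrome P450 panel screen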
[3] = molecular target: T2, Rac GTPase-activating protein 1 (Homo sapiens, UniProt Q9H0H5); assay: MgcRacGAP GTPase-activating activity inhibitors, confirmation, biochemical, ADP Hunter fluorescence, primary and confirmatory (AID 624330); assay type: functional
T2 sequence (Q9H0H5 whole entry): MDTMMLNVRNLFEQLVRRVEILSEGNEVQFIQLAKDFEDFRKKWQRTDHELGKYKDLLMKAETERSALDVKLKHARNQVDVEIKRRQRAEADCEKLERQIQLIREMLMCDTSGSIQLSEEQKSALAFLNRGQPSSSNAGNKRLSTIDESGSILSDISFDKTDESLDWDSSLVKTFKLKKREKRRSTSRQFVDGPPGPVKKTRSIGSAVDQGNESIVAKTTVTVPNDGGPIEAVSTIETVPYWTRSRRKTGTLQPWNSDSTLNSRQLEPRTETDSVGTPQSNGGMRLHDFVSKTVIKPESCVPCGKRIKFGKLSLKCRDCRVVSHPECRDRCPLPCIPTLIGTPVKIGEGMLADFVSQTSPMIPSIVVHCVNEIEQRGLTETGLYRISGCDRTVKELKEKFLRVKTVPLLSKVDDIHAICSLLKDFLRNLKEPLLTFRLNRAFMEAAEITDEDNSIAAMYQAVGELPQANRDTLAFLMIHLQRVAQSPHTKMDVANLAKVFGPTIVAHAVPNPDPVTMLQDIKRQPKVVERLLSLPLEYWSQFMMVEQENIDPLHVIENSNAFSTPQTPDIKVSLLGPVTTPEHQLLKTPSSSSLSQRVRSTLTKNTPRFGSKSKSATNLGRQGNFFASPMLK

[4] = molecular target: Cytochrome P450 2C19 (Homo sapiens, UniProt P33261); assay: Cytochrome panel assay with activity outcomes. Panel member name: p450-cyp2c19 Compounds with AC50 equal or less than 10 uM are considered active; assay type: functional
[5] = inhibitors of intracellular T. cruzi replication, confirmation, NIH3T3 host cells, beta-gal luminescence (AID 2044); assay type: functional, cell-based;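 also: intracellular parasites grown in NIH/3T3 mouse fibroblasts as host cells; luminescent beta-galactosidase reporter signal from transgenic T. cruzi replicating inside host cells; inhibitors lower the luminescence signal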
[6] = cytotoxicity toward NIH3T3 fibroblasts, dose response, counter-screen, cell-based, ATP luminescence, mouse fibroblasts (AID 2010); assay type: functional;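 also: cells exposed to compound for about 90 hours before reading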

Chain of Cytochrome P450 2C19 (P33261 whole entry): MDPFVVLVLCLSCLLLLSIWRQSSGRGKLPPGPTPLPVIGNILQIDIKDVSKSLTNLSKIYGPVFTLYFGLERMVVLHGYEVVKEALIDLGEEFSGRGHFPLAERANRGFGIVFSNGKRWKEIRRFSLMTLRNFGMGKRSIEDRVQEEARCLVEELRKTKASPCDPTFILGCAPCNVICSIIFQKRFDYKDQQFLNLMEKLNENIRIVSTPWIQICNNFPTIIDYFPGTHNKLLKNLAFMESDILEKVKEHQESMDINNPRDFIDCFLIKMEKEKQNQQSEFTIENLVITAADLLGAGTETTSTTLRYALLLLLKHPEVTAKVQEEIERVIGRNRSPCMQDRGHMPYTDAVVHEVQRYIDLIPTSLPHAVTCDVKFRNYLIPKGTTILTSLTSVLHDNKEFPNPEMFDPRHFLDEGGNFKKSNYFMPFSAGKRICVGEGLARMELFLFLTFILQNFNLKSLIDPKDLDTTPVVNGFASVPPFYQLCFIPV
Chain of Cytochrome P450 3A4 (P08684 whole entry): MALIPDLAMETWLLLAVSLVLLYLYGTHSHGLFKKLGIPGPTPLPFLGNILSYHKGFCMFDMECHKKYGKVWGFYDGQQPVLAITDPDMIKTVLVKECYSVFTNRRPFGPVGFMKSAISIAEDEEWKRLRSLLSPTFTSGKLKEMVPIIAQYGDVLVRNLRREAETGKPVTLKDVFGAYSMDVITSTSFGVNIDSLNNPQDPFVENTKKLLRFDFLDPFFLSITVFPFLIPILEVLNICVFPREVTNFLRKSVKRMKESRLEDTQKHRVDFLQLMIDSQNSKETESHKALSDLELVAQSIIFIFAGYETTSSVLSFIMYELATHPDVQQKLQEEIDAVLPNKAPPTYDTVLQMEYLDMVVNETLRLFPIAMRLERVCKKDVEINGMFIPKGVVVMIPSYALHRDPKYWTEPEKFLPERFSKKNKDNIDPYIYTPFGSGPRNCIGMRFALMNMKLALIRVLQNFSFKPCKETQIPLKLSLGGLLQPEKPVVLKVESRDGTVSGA

Structure (SMILES)	AC50 [1]	AC50 [2]	IC50 [3]	other results
CC(C)(C)c1nc(SCC(=O)Nc2ccc3c(c2)OCCO3)c2ccccc2n1	10 µM (inconclusive)			
Cn1c(=O)c(-c2ccccc2)nc2cncnc21		12.6 µM (inconclusive)		
OC(Cc1nc2ccccc2[nH]1)c1ccccc1Cl (stereo unspecified)	25.1 µM (inconclusive)			
COc1ccccc1CNc1ncncc1-c1cccc(C#N)c1		0.316 µM (inconclusive)		
CN1C[C@@H](CS(=O)(=O)N(C)C)C[C@H]2c3cccc4c3c(cn4C)C[C@@H]21	25.1 µM (inconclusive)			
CCN1CCN(CCCCOc2ccccc2F)CC1			70.1 µM (active)	
COc1ccc(-c2nc3cnc(OC)nc3n(-c3ccc(OC)cc3)c2=O)cc1	0.316 µM (inconclusive)	15.8 µM (inconclusive)		
Brc1cccc(CNCCc2ccc3c(c2)OCO3)c1			179 µM (active)	
COc1ccccc1N1CCN(/N=C/c2cc(OC)c(O)c(OC)c2)CC1			252 µM (active)	
CCN(CC)c1ccc(NC(=O)CN2C(=O)NC3(CCc4ccccc43)C2=O)cc1 (stereo unspecified)			89.8 µM (active)	
COc1cc(OC)c(C2C(C(=O)O)c3ccccc3C(=O)N2C)cc1OC (stereo unspecified)	31.6 µM (inconclusive)	0.355 µM (inconclusive)		
COc1ccc(N2CCN(CC(=O)Nc3cccc(S(=O)(=O)N4CCOCC4)c3)CC2)cc1			77.5 µM (active)	
O=C(CC(c1ccccc1)c1ccccc1)Nc1ccc(O)cc1			47.2 µM (active)	
COc1cc(/C=C/C(=O)N[C@@H](Cc2c[nH]c3ccccc23)C(=O)O)ccc1O			80 µM (active)	
Cc1cc(/C=C(\C#N)C(=O)N2CCCCC2)cc(C)c1O			59.4 µM (active)	
COc1ccc(Oc2ncc3nc(CCc4ccccc4)c(=O)n(CCC#N)c3n2)cc1	6.31 µM (inconclusive)			
COc1ccc(NC(=O)c2ccc(-c3ccc(-c4noc(C)n4)cc3C)cc2)cc1OCCN(C)C	39.8 µM (inconclusive)	15.8 µM (inconclusive)		
COc1cc(/C=N/NC(=O)CCN2CCN(C(c3ccccc3)c3ccccc3)CC2)ccc1O			50.9 µM (active)	
CC[C@](N)(CCC(=O)O)C(=O)O	20 µM (inconclusive)			
CC(C)NCC#CCOc1ccc(Cl)cc1			162 µM (active)	
CC(=O)NCCNc1nc(-c2ccccc2C(F)(F)F)nc2ccccc12		12.6 µM (inconclusive)		
O=C(c1cccc(F)c1)N1CCC2(CCCN(c3ccc(-c4ccccc4)cc3)C2)CC1		12.6 µM (inconclusive)		AC50 ([4]; read-out: AC50): 20 µM (inconclusive)

Structure (SMILES)	AC50 [1]	AC50 [2]	IC50 [3]	other results
O=C(Nc1ccc(Cl)cc1)OCCn1nnnc1C(c1ccccc1Cl)N1CCOCC1 (stereo unspecified)		0.891 µM (inconclusive)		
Cc1cc(C)c(S(=O)(=O)N2CCN(c3ccc([N+](=O)[O-])c(NCC4CCCO4)c3)CC2)c(C)c1 (stereo unspecified)		3.55 µM (inconclusive)		
CSc1nc(C)c2c(n1)N(c1ccc(O)cc1)CC2			16.8 µM (active)	
Cc1ccc(C)c(NC(=N)Nc2nc(C)cc(C)n2)c1	14.1 µM (inconclusive)			AC50 [4]: inconclusive; EC50 [5]: 1.2 µM (active); EC50 [6]: > 60 µM (inconclusive)
O=C1Nc2ccccc2C2=N[C@@H](CN3CCN(c4ccccc4)CC3)CN12	20 µM (inconclusive)			
CCOc1ccc(OCCOCCN2CCCC2)cc1			109 µM (active)	
CN1CCCC2(CCN(C(=O)c3cc(C(F)(F)F)cc(C(F)(F)F)c3)CC2)C1		25.1 µM (inconclusive)		AC50 ([4]; read-out: AC50): 25.1 µM (inconclusive)
CCN1CCN(C(C)C(=O)NC2CCCCC2)CC1 (stereo unspecified)			75.6 µM (active)	
O=C(c1cnccn1)N1CCC2(CC1)CN(c1cccc(-c3ccccc3)c1)C2	15.8 µM (inconclusive)	39.8 µM (inconclusive)		
O=C(Nc1cccn(Cc2c(Cl)cccc2Cl)c1=O)c1ccc(Cl)cc1Cl	2.82 µM (inconclusive)	14.1 µM (inconclusive)		
CCCc1ccc(-c2cc(C(=O)NN3CCOCC3)c3ccccc3n2)cc1		12.6 µM (inconclusive)		AC50 ([4]; read-out: AC50): 15.8 µM (inconclusive)
CCC(CC)N1CCN(C(=O)c2cccc(Cl)c2)CC1			193 µM (active)	
COc1ccc(NCc2cccnc2)cc1			53.1 µM (active)	
O=C1CCCC=C1[C@@H](O)COCc1ccccc1		3.16 µM (inconclusive)		
O=C(O)CN1C(=O)CN=C(c2ccccn2)c2cc(Cl)ccc21	1.26 µM (inconclusive)			
Nc1c2c(=O)oc(-c3ccccc3)cc2nn1-c1ccccc1		25.1 µM (inconclusive)		
O=C(CCc1ccc(O)c(O)c1)N/N=C/c1ccc2c(c1)OCO2			91.7 µM (active)	
N#C/C(=C\c1cccnc1)C(=O)Nc1cccc2ccccc12			157 µM (active)	
S=C=Nc1cccc(C2(N3CCCCC3)CCCCC2)c1	31.6 µM (inconclusive)			
COc1cc(/C=C/C(=O)OCC(=O)NCCCc2ccccc2)ccc1O			41.5 µM (active)	
COC(=O)[C@@]1(Cc2ccc(OC)cc2)[C@H]2c3cc(C(=O)N4CCCC4)n(CCc4c[nH]c5ccc(OC)cc45)c3C[C@H]2CN1C(=O)c1ccccc1	10 µM (inconclusive)			
CN(Cc1ccco1)c1ncnc2ccc(-c3ccccc3C#N)cc12		31.6 µM (inconclusive)		

Structure (SMILES)	AC50 [1]	AC50 [2]	IC50 [3]	other results
COc1ncc2ncc(=O)n(CCC#N)c2n1	20 µM (inconclusive)			
CC1CCC(NC(=O)CC(C)(C)Cc2nc(O)c3ccccc3n2)CC1 (stereo unspecified)	22.4 µM (inconclusive)			
O=C(Cc1coc2cc(O)ccc12)NNC(=O)c1ccc(Br)s1			31.8 µM (active)	
COCCn1c(=O)c(-c2cccc(F)c2)nc2cncnc21		15.8 µM (inconclusive)		AC50 ([4]; read-out: AC50): 39.8 µM (inconclusive)
CC(=O)c1cc(CC=C(C)C)c(O)cc1O		1.41 µM (inconclusive)		
Cc1noc(C)c1-c1cncnc1NCc1ccccc1	25.1 µM (inconclusive)			
Cc1cc(C)c(C)c(OCCNCc2ccccc2)c1			105 µM (active)	
Cc1c(NC(=O)NC(C)N2C(=O)C3C4C=CC(C4)C3C2=O)c(=O)n(-c2ccccc2)n1C (stereo unspecified)		25.1 µM (inconclusive)		
CCc1cc(/C(Cc2cscn2)=N\O)c(O)cc1O			52 µM (active)	
Cc1cccc2nc(C(F)(F)F)nc(=O)n12	0.0316 µM (inconclusive)			AC50 ([4]; read-out: AC50): 28.2 µM (inconclusive)
CC[C@]1(O)C[C@@H]2CN(CCc3c([nH]c4ccccc34)[C@](C(=O)OC)(c3cc4c(cc3OC)N(C=O)[C@H]3[C@@](O)(C(=O)OC)[C@H](C(=O)OC)[C@@]5(CC)C=CCN6CC[C@]43[C@H]65)C2)C1		25.1 µM (inconclusive)		
COc1ccc(NC(=O)N2CC3(CCN(C(=O)c4ccc(OC)cc4)CC3)C2)cc1		25.1 µM (inconclusive)		
CNC(=O)[C@@H]1O[C@@H](n2cnc3c(NCc4ccc(N)cc4)ncnc32)[C@@H](O)[C@H]1O		25.1 µM (inconclusive)		
CCOc1cc(/C=C2/NC(=O)N(Cc3ccccc3F)C2=O)ccc1O			44.5 µM (active)	
CC(C)N1C(=O)/C(=C\c2c[nH]c3ccccc23)S/C1=N\c1ccccc1	4.47 µM (inconclusive)	22.4 µM (inconclusive)		AC50 ([4]; read-out: AC50): 2 µM (inconclusive)
O=c1oc2ccccc2c(O)c1Cc1c(O)c2ccccc2oc1=O [DICUMAROL]	12.6 µM (inconclusive)			AC50 ([4]; read-out: AC50): 10 µM (inconclusive)
Cc1noc(C)c1C(=O)N1CCC2(CCCN(C(=O)Nc3cccc(F)c3)C2)CC1	15.8 µM (inconclusive)	15.8 µM (inconclusive)		
Cc1cccc(-n2nnc3cnn(C)c3c2=O)c1	12.6 µM (inconclusive)	31.6 µM (inconclusive)		
CC(C)(C)C(=O)N(CCN(C(=O)C(C)(C)C)c1ccccc1)c1ccccc1		7.08 µM (inconclusive)		AC50 ([4]; read-out: AC50): 8.91 µM (inconclusive)
C=CCc1cc(Cl)ccc1OCCNCCN1CCOCC1			90.8 µM (active)	EC50 [5]: 0.136 µM (active); EC50 [6]: > 60 µM (not active)
O=C1[C@H]2[C@H]3[C@H](O)[C@H](O)C/C(=N/OC[C@@H](O)COCc4ccco4)[C@@H]3CC[C@@H]2C(=O)N1C1CCCCC1		5.01 µM (inconclusive)		

Source: ChEMBL document CHEMBL1201862, “PubChem BioAssay data set” (2004)
